From ChEMBL document CHEMBL3994564 (Medchemcomm, 2016)
Converted amounts (≈) assume the structure as drawn.

What was measured:
[1] = target: T1, Beta-ketoacyl-[acyl-carrier-protein] synthase III (Escherichia coli K-12, UniProt P0A6R0); assay: Inhibition of Escherichia coli FabH expressed in Escherichia coli DH10B using holo-ACP/acetyl-CoA as substrate assessed as incorporation of [3H] signal in final product preincubated with holo-ACP for 1 hr followed by acetyl-CoA addition measured after 25 mins by liquid scintillation counting method
T1 sequence (P0A6R0 whole entry): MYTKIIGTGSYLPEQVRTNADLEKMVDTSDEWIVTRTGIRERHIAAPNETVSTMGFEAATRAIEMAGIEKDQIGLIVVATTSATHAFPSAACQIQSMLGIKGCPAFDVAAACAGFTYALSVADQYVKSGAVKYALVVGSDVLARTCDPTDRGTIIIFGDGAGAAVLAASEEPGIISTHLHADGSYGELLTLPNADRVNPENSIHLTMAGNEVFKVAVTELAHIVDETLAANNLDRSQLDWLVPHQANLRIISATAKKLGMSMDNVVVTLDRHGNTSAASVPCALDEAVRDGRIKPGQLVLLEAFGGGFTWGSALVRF

Staphylococcus aureus = assay: Antibacterial activity against Staphylococcus aureus ATCC 6538 after 24 hrs by MTT assay; assay type: functional; conditions: ATCC 6538, 24 h
NIH3T3 = assay: Cytotoxic activity against mouse NIH/3T3 cells after 24 hrs by MTT assay; assay type: cell-based; conditions: NIH3T3, 24 h
Escherichia coli = assay: Antibacterial activity against Escherichia coli ATCC 25922 after 24 hrs by MTT assay; assay type: functional; conditions: ATCC 25922, 24 h
Pseudomonas aeruginosa = assay: Antibacterial activity against Pseudomonas aeruginosa ATCC 27853 after 24 hrs by MTT assay; assay type: functional; conditions: ATCC 27853, 24 h
Bacillus subtilis = assay: Antibacterial activity against Bacillus subtilis ATCC 530 after 24 hrs by MTT assay; assay type: functional; conditions: ATCC 530, 24 h

Row | Structure (SMILES) | IC50 [1] [µM] | MIC (Staphylococcus aureus) [mg/L] | IC50 (NIH3T3) [µM] | MIC (Escherichia coli) [mg/L] | MIC (Pseudomonas aeruginosa) [mg/L] | MIC (Bacillus subtilis) [mg/L]
1 | O=C(N/N=C/c1ccc(C(F)(F)F)cc1)c1ccc2c(c1)OCCCO2 | 12.4 | 12.5 (≈ 34.3 µM) | 104 | 25 (≈ 68.6 µM) | 12.5 (≈ 34.3 µM) | 25 (≈ 68.6 µM)
2 | O=C(N/N=C/c1ccc(O)c([N+](=O)[O-])c1)c1ccc2c(c1)OCCCO2 | 8.9 | 25 (≈ 70 µM) | 198 | 6.25 (≈ 17.5 µM) | 12.5 (≈ 35 µM) | 12.5 (≈ 35 µM)
3 | O=C(N/N=C/c1cc([N+](=O)[O-])ccc1Cl)c1ccc2c(c1)OCCCO2 | 3.9 | 3.13 (≈ 8.33 µM) | 172 | 3.13 (≈ 8.33 µM) | 3.13 (≈ 8.33 µM) | 6.25 (≈ 16.6 µM)
4 | COc1ccc(/C=N/NC(=O)c2ccc3c(c2)OCCCO3)cc1 | 24.1 | 25 (≈ 76.6 µM) | 132 | 25 (≈ 76.6 µM) | 12.5 (≈ 38.3 µM) | 50 (≈ 153 µM)
5 | O=C(N/N=C/c1cc([N+](=O)[O-])ccc1O)c1ccc2c(c1)OCCCO2 | 3.5 | 6.25 (≈ 17.5 µM) | 157 | 6.25 (≈ 17.5 µM) | 3.13 (≈ 8.76 µM) | 3.13 (≈ 8.76 µM)
6 | O=C(N/N=C/c1ccccc1Cl)c1ccc2c(c1)OCCCO2 |  | 50 (≈ 151 µM) |  | 25 (≈ 75.6 µM) | 50 (≈ 151 µM) | > 100
7 | O=C(N/N=C/c1ccc(I)cc1)c1ccc2c(c1)OCCCO2 | 6.9 | 6.25 (≈ 14.8 µM) | 201 | 25 (≈ 59.2 µM) | 25 (≈ 59.2 µM) | 12.5 (≈ 29.6 µM)
8 | O=C(N/N=C/c1ccc(F)c([N+](=O)[O-])c1)c1ccc2c(c1)OCCCO2 | 5.1 | 6.25 (≈ 17.4 µM) | 131 | 12.5 (≈ 34.8 µM) | 6.25 (≈ 17.4 µM) | 6.25 (≈ 17.4 µM)
9 | O=Cc1ccccc1/C=N/NC(=O)c1ccc2c(c1)OCCCO2 |  | 25 (≈ 77.1 µM) |  | 25 (≈ 77.1 µM) | 25 (≈ 77.1 µM) | 50 (≈ 154 µM)
10 | CN(C)c1ccc(/C=N/NC(=O)c2ccc3c(c2)OCCCO3)c(O)c1 | 6.7 | 25 (≈ 70.3 µM) | 203 | 12.5 (≈ 35.2 µM) | 12.5 (≈ 35.2 µM) | 50 (≈ 141 µM)
11 | COc1cc(/C=N/NC(=O)c2ccc3c(c2)OCCCO3)cc(OC)c1O | 3.9 | 6.25 (≈ 16.8 µM) | 147 | 3.13 (≈ 8.41 µM) | 6.25 (≈ 16.8 µM) | 3.13 (≈ 8.41 µM)
12 | O=C(N/N=C/c1cccs1)c1ccc2c(c1)OCCCO2 |  | > 100 |  | > 100 | > 100 | > 100
13 | O=C(N/N=C/c1ccc(Cl)cc1Cl)c1ccc2c(c1)OCCCO2 | 4.3 | 6.25 (≈ 17.1 µM) | 198 | 6.25 (≈ 17.1 µM) | 6.25 (≈ 17.1 µM) | 12.5 (≈ 34.2 µM)
14 | O=C(N/N=C/c1cccc2ccccc12)c1ccc2c(c1)OCCCO2 | 5.2 | 6.25 (≈ 18 µM) | 130 | 3.13 (≈ 9.04 µM) | 6.25 (≈ 18 µM) | 6.25 (≈ 18 µM)
15 | Cc1ccccc1/C=N/NC(=O)c1ccc2c(c1)OCCCO2 |  | > 100 |  | > 100 | 50 (≈ 161 µM) | > 100
16 | O=C(N/N=C/c1ccc(O)cc1)c1ccc2c(c1)OCCCO2 | 38.7 | 12.5 (≈ 40 µM) | 178 | 50 (≈ 160 µM) | 25 (≈ 80 µM) | 25 (≈ 80 µM)
17 | Cc1cccc(/C=N/NC(=O)c2ccc3c(c2)OCCCO3)c1 |  | > 100 |  | 50 (≈ 161 µM) | 25 (≈ 80.6 µM) | 50 (≈ 161 µM)
18 | O=C(N/N=C/C=C/c1ccccc1)c1ccc2c(c1)OCCCO2 |  | > 100 |  | 50 (≈ 155 µM) | 25 (≈ 77.6 µM) | 50 (≈ 155 µM)
19 | O=C(N/N=C/c1ccc(O)c(O)c1)c1ccc2c(c1)OCCCO2 | 7.8 | 25 (≈ 76.1 µM) | 102 | 12.5 (≈ 38.1 µM) | 12.5 (≈ 38.1 µM) | 25 (≈ 76.1 µM)
